From patent US9890166B2, “Imidazopyrrolidine derivatives and their use in the treatment of disease” (NOVARTIS AG, priority 2013, dated 2018)
pIC50: −log10 of the molar value.

What was measured:
BRD4 (His-Brd4(44-477)) = BRD4 (His-Brd4(44-477)) (Homo sapiens (Human), UniProt O60885); test: TR-FRET in-vitro binding assay for BRD4; conditions: single determination or n ≧ 2 independent determinations, read-out: Biochemical IC50 BRD4
In short: (§1)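 TR-FRET binding with His-tagged bromodomain constructs, 8-point compound dilutions from 10 mM DMSO stocks. Reactions incubated 35 min at 30° C in 13.55 μL, read on an EnVision multilabel reader.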

BRD2 (His-Brd2(60-472)) = BRD2 (His-Brd2(60-472)) (Homo sapiens (Human), UniProt P25440); test: TR-FRET in-vitro binding assay for BRD2; conditions: single determination or n ≧ 2 independent determinations, read-out: Biochemical IC50 BRD2
In short: as §1

BRD3 (His-Brd3(20-477)) = BRD3 (His-Brd3(20-477)) (Homo sapiens (Human), UniProt Q15059); test: TR-FRET in-vitro binding assay for BRD3; conditions: single determination or n ≧ 2 independent determinations, read-out: Biochemical IC50 BRD3
In short: as §1

[1] = biological target: CREBBP bromodomain (His-CREBBP(1081-1197)) (Homo sapiens (Human), UniProt Q92793); test: AlphaScreen in-vitro binding assay for CREBBP; conditions: single determination or n ≧ 2 independent determinations, read-out: Biochemical IC50 CREBBP
In short: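 Reactions at 30 °C for 35 min, then Ni-chelate acceptor and streptavidin donor beads in HEPES pH 7.5, NaCl, Tween20, BSA, 60 min at room temperature. Eight-point compound series; IC50 by non-linear regression of percent inhibition.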

THP-1 cells = test: Cell growth inhibition assay (CellTiter-Glo), THP-1; conditions: for GI50: Homo sapiens, THP-1, read-out: THP-1 GI50; for THP-1 TGI: THP-1 cells, total growth inhibition, CellTiter-Glo;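 for all read-outs here: viability read as cellular ATP luminescence after 4 days, 3-fold dilution series from 10 µM, DMSO vehicle-treated cells taken as 100%, cell-free medium wells as −100%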
K-562 cells = test: Cell growth inhibition assay (CellTiter-Glo), K-562; conditions: for GI50: Homo sapiens, K562, read-out: K-562 GI50; for K-562 TGI: K-562 cells, total growth inhibition, CellTiter-Glo;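 for all read-outs here: cellular ATP measured by luminescence after 4 days of exposure, 3-fold dilution series from 10 µM, DMSO vehicle-treated cells define 100%, cell-free medium wells −100%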
MV-4-11 cells = test: Cell growth inhibition assay (CellTiter-Glo), MV-4-11; conditions: for GI50: Homo sapiens, MV4-11, read-out: MV-4-11 GI50; for MV-4-11 TGI: MV-4-11 cells, total growth inhibition, CellTiter-Glo;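 for all read-outs here: cellular ATP luminescence after 4 days, 3-fold dilution series from 10 µM top dose, vehicle (0.1% DMSO) set to 100%, cell-free medium set to −100%, day 0 corrected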

Chain of BRD2 (His-Brd2(60-472)) (P25440 60-472): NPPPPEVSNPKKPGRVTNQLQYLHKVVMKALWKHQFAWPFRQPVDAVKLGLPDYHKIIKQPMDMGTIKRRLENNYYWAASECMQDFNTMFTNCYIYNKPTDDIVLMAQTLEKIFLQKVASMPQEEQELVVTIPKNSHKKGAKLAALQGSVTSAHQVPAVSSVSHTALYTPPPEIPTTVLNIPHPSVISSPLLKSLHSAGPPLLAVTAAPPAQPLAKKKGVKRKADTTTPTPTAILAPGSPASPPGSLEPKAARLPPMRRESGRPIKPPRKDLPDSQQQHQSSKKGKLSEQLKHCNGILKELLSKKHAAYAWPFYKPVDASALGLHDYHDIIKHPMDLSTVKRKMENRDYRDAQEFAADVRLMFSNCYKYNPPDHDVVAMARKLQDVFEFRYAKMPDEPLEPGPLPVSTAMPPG
Chain of BRD3 (His-Brd3(20-477)) (Q15059 20-477): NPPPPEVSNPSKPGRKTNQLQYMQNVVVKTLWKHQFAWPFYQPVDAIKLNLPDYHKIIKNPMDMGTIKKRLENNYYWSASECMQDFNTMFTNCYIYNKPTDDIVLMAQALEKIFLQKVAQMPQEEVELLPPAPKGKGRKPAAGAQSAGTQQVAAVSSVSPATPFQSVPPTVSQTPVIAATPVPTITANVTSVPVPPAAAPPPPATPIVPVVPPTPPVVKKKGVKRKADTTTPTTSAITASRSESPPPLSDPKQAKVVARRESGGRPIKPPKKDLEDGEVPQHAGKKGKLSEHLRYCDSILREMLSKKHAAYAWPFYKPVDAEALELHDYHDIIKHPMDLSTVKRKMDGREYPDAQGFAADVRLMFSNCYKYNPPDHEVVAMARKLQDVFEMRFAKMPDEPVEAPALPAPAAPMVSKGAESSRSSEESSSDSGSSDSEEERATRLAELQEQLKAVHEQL
Chain of CREBBP bromodomain (His-CREBBP(1081-1197)) (Q92793 1081-1197): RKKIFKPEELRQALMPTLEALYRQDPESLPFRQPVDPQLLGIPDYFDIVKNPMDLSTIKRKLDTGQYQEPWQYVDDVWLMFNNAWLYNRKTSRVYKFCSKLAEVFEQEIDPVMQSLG

SMILES | pIC50 (BRD4 (His-Brd4(44-477))) | pIC50 (BRD2 (His-Brd2(60-472))) | pIC50 (BRD3 (His-Brd3(20-477))) | pIC50 [1] | GI50 (THP-1 cells) [µM] | GI50 (K-562 cells) [µM] | GI50 (MV-4-11 cells) [µM] | THP-1 TGI (THP-1 cells) [µM] | K-562 TGI (K-562 cells) [µM] | MV-4-11 TGI (MV-4-11 cells) [µM]
COC(=O)N1CCC(c2nc3c(n2C(C)C)C(c2ccc(Cl)cc2)N(c2cc(C)c4nnc(C)n4c2)C3=O)CC1 (stereo not drawn) [Example 76, methyl 4-(6-(4-chlorophenyl)-5-(3,8-dimethyl-[1,2,4]triazolo[4,3-a]pyridin-6-yl)-1-isopropyl-4-oxo-1,4,5,6-tetrahydropyrrolo[3,4-d]imidazol-2-yl)piperidine-1-carboxylate] | 7.27 | 7.01 | 7.19 | 5.69 | 0.0957 | 0.315 | 0.0233 | 0.266 | >10 | 0.0388
Cc1cc(N2C(=O)c3nc(C4=CCN(C)CC4)n(C(C)C)c3C2c2ccc(Cl)cc2)cc2c1nnn2C (stereo not drawn) [Example 78, 6-(4-chlorophenyl)-5-(1,4-dimethyl-1H-benzo[d][1,2,3]triazol-6-yl)-1-isopropyl-2-(1-methyl-1,2,3,6-tetrahydropyridin-4-yl)-5,6-dihydropyrrolo[3,4-d]imidazol-4(1H)-one] | 7.55 | 7.32 | 7.51 | 5.37 | 0.0144 | 0.0496 | 0.00454 | 0.0388 | >10 | 0.00958
Cc1cc(N2C(=O)c3nc(C4=CCOCC4)n(C(C)C)c3C2c2ccc(Cl)cc2)cc2c1nnn2C (stereo not drawn) [Example 79, 6-(4-chlorophenyl)-2-(3,6-dihydro-2H-pyran-4-yl)-5-(1,4-dimethyl-1H-benzo[d][1,2,3]triazol-6-yl)-1-isopropyl-5,6-dihydropyrrolo[3,4-d]imidazol-4(1H)-one] | 7.59 | 7.34 | 7.67 | 5.47 | 0.00792 | 0.0295 | 0.00558 | 0.0179 | >10 | 0.0111
COc1ccc(-c2nc3c(n2C(C)C)C(c2ccc(Cl)cc2)N(c2cc(C)c4nnn(C)c4c2)C3=O)cn1 (stereo not drawn) [Example 83, 6-(4-chlorophenyl)-5-(1,4-dimethyl-1H-benzo[d][1,2,3]triazol-6-yl)-1-isopropyl-2-(6-methoxypyridin-3-yl)-5,6-dihydropyrrolo[3,4-d]imidazol-4(1H)-one] | 7.62 | 7.19 | 7.52 | < 4.43 | 0.0271 | 0.105 | 0.0239 | 0.0722 | >10 | 0.0464
Cc1cc(N2C(=O)c3nc(C4=CCOCC4)n(C(C)C)c3[C@H]2c2ccc(Cl)cc2)cn2c(C)nnc12 [Example 84, (R)-6-(4-chlorophenyl)-2-(3,6-dihydro-2H-pyran-4-yl)-5-(3,8-dimethyl-[1,2,4]triazolo[4,3-a]pyridin-6-yl)-1-isopropyl-5,6-dihydropyrrolo[3,4-d]imidazol-4(1H)-one] | 7.74 | 7.44 | 7.62 | 5.46 | 0.044 | 0.0732 | 0.0146 | 0.0998 | >10 | 0.0294
Cc1cc(N2C(=O)c3nc(C4=CCCN(C)C4)n(C(C)C)c3[C@H]2c2ccc(Cl)cc2)cn2c(C)nnc12 [Example 85] | 7.82 | 7.54 | 7.70 | 5.44 | 0.138 | 0.277 | 0.0163 | 0.37 | >10 | 0.0325
Cc1cc(N2C(=O)c3nc(C4=CCOCC4)n(C(C)C)c3C2c2ccc(Cl)cc2)cn2c(CF)nnc12 (stereo not drawn) [Example 88, 6-(4-chlorophenyl)-2-(3,6-dihydro-2H-pyran-4-yl)-5-(3-(fluoromethyl)-8-methyl-[1,2,4]triazolo[4,3-a]pyridin-6-yl)-1-isopropyl-5,6-dihydropyrrolo[3,4-d]imidazol-4(1H)-one] | 7.41 | 7.12 | 7.37 | 4.82 | 0.0428 | 0.172 | 0.0237 | 0.1121 | >10 | 0.03985

Now from value to molecule, other results behind:

pIC50 (BRD4 (His-Brd4(44-477))) | pIC50 (BRD2 (His-Brd2(60-472))) | pIC50 (BRD3 (His-Brd3(20-477))) | pIC50 [1] | GI50 (THP-1 cells) [µM] | GI50 (K-562 cells) [µM] | GI50 (MV-4-11 cells) [µM] | SMILES | THP-1 TGI (THP-1 cells) [µM] | K-562 TGI (K-562 cells) [µM] | MV-4-11 TGI (MV-4-11 cells) [µM]
7.89 | 7.77 | 7.92 | 5.84 | 0.00553 | 0.0288 | 0.00414 | Cc1cc(N2C(=O)c3nc(C4CCOCC4)n(C(C)C)c3C2c2ccc(Cl)cc2)cc2c1nnn2C (stereo not drawn) [Example 80, 6-(4-chlorophenyl)-5-(1,4-dimethyl-1H-benzo[d][1,2,3]triazol-6-yl)-1-isopropyl-2-(tetrahydro-2H-pyran-4-yl)-5,6-dihydropyrrolo[3,4-d]imidazol-4(1H)-one] | 0.0154 | >10 | 0.00945
> 7.96 | > 7.96 | > 7.96 | 5.82 | 0.00382 | 0.0195 | 0.00342 | Cc1cc(N2C(=O)c3nc(C4=CCOCC4)n(C(C)C)c3[C@H]2c2ccc(Cl)cc2)cc2c1nnn2C [Example 81, (R)-6-(4-chlorophenyl)-2-(3,6-dihydro-2H-pyran-4-yl)-5-(1,4-dimethyl-1H-benzo[d][1,2,3]triazol-6-yl)-1-isopropyl-5,6-dihydropyrrolo[3,4-d]imidazol-4(1H)-one] | 0.0107 | >10 | 0.005405
> 7.96 | 7.89 | > 7.96 | 5.97 | 0.00254 | 0.00896 | 0.00157 | Cc1cc(N2C(=O)c3nc(C4CCOCC4)n(C(C)C)c3[C@H]2c2ccc(Cl)cc2)cc2c1nnn2C [Example 82, (R)-6-(4-chlorophenyl)-5-(1,4-dimethyl-1H-benzo[d][1,2,3]triazol-6-yl)-1-isopropyl-2-(tetrahydro-2H-pyran-4-yl)-5,6-dihydropyrrolo[3,4-d]imidazol-4(1H)-one] | 0.00982 | >10 | 0.00603
> 7.96 | 7.72 | > 7.96 | 5.42 | 0.057 | 0.249 | 0.0208 | Cc1cc(N2C(=O)c3nc(C4CCOCC4)n(C(C)C)c3C2c2ccc(Cl)cc2)cn2c(C)nnc12 (stereo not drawn) [Example 86, 6-(4-chlorophenyl)-5-(3,8-dimethyl-[1,2,4]triazolo[4,3-a]pyridin-6-yl)-1-isopropyl-2-(tetrahydro-2H-pyran-4-yl)-5,6-dihydropyrrolo[3,4-d]imidazol-4(1H)-one] | 0.155 | >10 | 0.043
7.85 | 7.60 | 7.85 | 5.74 | 0.0276 | 0.167 | 0.00854 | Cc1cc(N2C(=O)c3nc(C4CCOCC4)n(C(C)C)c3[C@H]2c2ccc(Cl)cc2)cn2c(C)nnc12 [Example 87, (R)-6-(4-chlorophenyl)-5-(3,8-dimethyl-[1,2,4]triazolo[4,3-a]pyridin-6-yl)-1-isopropyl-2-(tetrahydro-2H-pyran-4-yl)-5,6-dihydropyrrolo[3,4-d]imidazol-4(1H)-one] | 0.0792 | >10 | 0.01445
